Structures can show the parent of a compound that is named as a salt.

In this test the target is T1, G9a (Homo sapiens, UniProt Q96KQ7).
T1 sequence (Q96KQ7 1-1210): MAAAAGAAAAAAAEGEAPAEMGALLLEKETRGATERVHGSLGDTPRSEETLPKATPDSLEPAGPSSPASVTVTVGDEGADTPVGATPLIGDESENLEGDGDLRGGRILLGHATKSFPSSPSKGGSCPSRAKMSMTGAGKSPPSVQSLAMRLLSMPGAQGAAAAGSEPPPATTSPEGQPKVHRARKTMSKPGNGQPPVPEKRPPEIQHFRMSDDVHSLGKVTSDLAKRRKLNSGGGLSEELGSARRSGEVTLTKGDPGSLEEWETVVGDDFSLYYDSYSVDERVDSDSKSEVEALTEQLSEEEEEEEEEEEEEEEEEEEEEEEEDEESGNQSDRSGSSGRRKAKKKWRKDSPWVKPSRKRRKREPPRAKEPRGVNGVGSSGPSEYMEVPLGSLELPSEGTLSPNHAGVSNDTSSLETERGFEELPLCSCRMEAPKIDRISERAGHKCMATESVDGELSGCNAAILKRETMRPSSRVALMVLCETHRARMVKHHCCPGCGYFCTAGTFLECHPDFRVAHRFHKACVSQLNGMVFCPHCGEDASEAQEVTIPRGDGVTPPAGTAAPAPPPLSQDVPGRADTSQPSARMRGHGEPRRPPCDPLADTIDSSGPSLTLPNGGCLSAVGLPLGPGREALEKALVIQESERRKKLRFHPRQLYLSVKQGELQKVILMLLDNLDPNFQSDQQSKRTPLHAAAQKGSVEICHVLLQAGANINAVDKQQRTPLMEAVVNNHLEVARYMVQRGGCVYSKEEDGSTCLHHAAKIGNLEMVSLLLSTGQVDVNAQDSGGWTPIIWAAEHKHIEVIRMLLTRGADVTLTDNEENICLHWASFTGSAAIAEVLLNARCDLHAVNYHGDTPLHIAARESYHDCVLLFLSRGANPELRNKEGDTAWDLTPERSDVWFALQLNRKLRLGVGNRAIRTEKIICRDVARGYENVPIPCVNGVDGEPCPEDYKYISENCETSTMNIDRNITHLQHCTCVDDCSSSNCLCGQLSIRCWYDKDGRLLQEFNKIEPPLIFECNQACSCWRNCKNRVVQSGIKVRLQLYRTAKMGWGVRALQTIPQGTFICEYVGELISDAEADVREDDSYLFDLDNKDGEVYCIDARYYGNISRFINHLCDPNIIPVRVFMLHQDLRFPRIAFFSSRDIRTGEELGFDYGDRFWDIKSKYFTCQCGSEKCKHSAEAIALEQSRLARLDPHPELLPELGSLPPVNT
Kind of test: G9a AlphaLISA enzymatic activity assay. The class given is biochemical. Particulars: 0.15 nM G9a, 15 uM S-adenosyl-methionine, 100 nM biotinylated histone 3 peptide (1-21), 1 hour at room temperature; read-out: G9a in (uM) (IC50, concentration that produced 50% inhibition). An excerpt:
The G9a AlphaLISA assay was used to detect the methyl modifications of a biotinylated histone H3 peptide by the compounds. These modifications are done by the histone methyl transferase activity of the G9a enzyme. The assay consists of reading a chemiluminescent signal at 615 nm; this signal is generated by a laser excitation at 680 nm that transfers a reactive singlet oxygen between the donor beads and acceptor beads. Donor beads are streptavidin conjugated and bind to the biotin on the peptide. Acceptor beads are conjugated with an antibody that recognizes the specific G9a methyl mark on the peptide. If there is a methyl mark on the peptide, the acceptor beads will bind to the peptide. Upon binding, the acceptor beads will be in close proximity (<200 nm) of the donor beads and when the donor beads are excited, the transfer of the oxygen can occur and a strong signal will be generated. If there is no methyl mark, the interaction between beads will not occur and signal will be at background levels.
For the assay, the following buffer was used to set up reactions: 50 mM Tris-HCl pH9, 50 mM NaCl, 0.01% Tween-20 and 1 mM DTT (added fresh prior to starting the reactions). The assay is set up by adding a final concentration of 0.15 nM G9a, 15 uM S-adenosyl-methionine and, 100 nM biotinylated histone 3 peptide (1-21). The reaction is incubated at room temperature for 1 hour, and subsequently quenched by the addition of the acceptor beads (anti-H3k9me2 AlphaLISA acceptor beads, PerkinElmer # AL117) at a final concentration of 20 ug/mL. The acceptor beads are incubated for 1 hour. After 1 hour, the donor beads are added at a final concentration of 20 ug/mL (Alpha Streptavidin donor beads, PerkinElmer #6760002). Donor beads are incubated for 0.5 hours. Both donor and acceptor beads are resuspended in AlphaLISA 5X Epigenetics Buffer 1 Kit (PerkinElmer # AL008) prior to addition to the reaction. All manipulations and incubations with the donor and acceptor beads are done in subdued light. Signal is detected in an EnVision plate reader in Alpha mode (see ACS Med Chem Lett. 2014 Jan. 2; 5(2):205-9. doi: 10.1021/m1400496h. eCollection 2014. Discovery and development of potent and selective inhibitors of histone methyltransferase g9a.)
Percent inhibition was calculated for each compound dilution and the concentration that produced 50% inhibition was calculated. This value is presented as the IC50.

On to `COc1cc2c3c(c(N[C@H]4CCC[C@H]4O)nc2cc1OCCCN1CCCC1)CCC3` (racemic) [Example 125, (1R,2S)-2-({8-methoxy-7-[3-(pyrrolidin-1-yl)propoxy]-1H,2H,3H-cyclopenta[c]quinolin-4-yl}amino)cyclopentan-1-ol and (1S,2R)-2-({8-methoxy-7-[3-(pyrrolidin-1-yl)propoxy]-1H,2H,3H-cyclopenta[c]quinolin-4-yl}amino)cyclopentan-1-ol (1:1) mixture as formate salt], for which the IC50 stood at 1 µM.
As for `CNc1nc2cc(OCCCN3CCCC3)c(OC)cc2c2c1CCC2` [Example 1, 8-methoxy-N-methyl-7-[3-(pyrrolidin-1-yl)propoxy]-1H,2H,3H-cyclopenta[c]quinolin-4-amine formate], the IC50 was determined as 0.031 µM.
On to `CNc1nc2cc(OCCCN3CCCC3)c(OC)cc2c2c1CCCC2` [Example 2, 2-methoxy-N-methyl-3-[3-(pyrrolidin-1-yl)propoxy]-7,8,9,10-tetrahydrophenanthridin-6-amine formate], for which the IC50 was found to be 0.029 µM.
The result for `COc1cc2c3c(c(NC(C)C)nc2cc1OCCCN1CCCC1)CCC3` [Example 3, 8-methoxy-N-(propan-2-yl)-7-[3-(pyrrolidin-1-yl)propoxy]-1H,2H,3H-cyclopenta-[c]quinolin-4-amine trifluoroacetate] reads 0.015 µM.
The same measure for `COc1cc2c3c(c(NCCO)nc2cc1OCCCN1CCCC1)CCC3` [Example 4, 2-({8-methoxy-7-[3-(pyrrolidin-1-yl)propoxy]-1H,2H,3H-cyclopenta[c]quinolin-4-yl}amino)ethan-1-oltrifluoroacetate trifluoroacetate]: 0.04 µM; for `COc1cc2c3c(c(NCCc4ccccc4)nc2cc1OCCCN1CCCC1)CCC3` [Example 5, 8-methoxy-N-(2-phenylethyl)-7-[3-(pyrrolidin-1-yl)propoxy]-1H,2H,3H-cyclopenta[c]quinolin-4-amine trifluoroacetate]: 0.15 µM; for `COc1cc2c3c(c(NC(C)C)nc2cc1OCCCN1CCCC1)CC(C)C3` (stereo not shown) [Example 6, 8-methoxy-2-methyl-N-(propan-2-yl)-7-[3-(pyrrolidin-1-yl)propoxy]-1H,2H,3H-cyclopenta[c]quinolin-4-amine formate]: 0.027 µM.
Turning to `COc1cc2c3c(c(NC4CCC4)nc2cc1OCCCN1CCCC1)CCC3` [Example 7, N-cyclobutyl-8-methoxy-7-[3-(pyrrolidin-1-yl)propoxy]-1H,2H,3H-cyclopenta[c]quinolin-4-amine formate], the IC50 is 0.045 µM.
Regarding `COc1cc2c3c(c(NC4CCCC4)nc2cc1OCCCN1CCCC1)CCC3` [Example 8, N-cyclopentyl-8-methoxy-7-[3-(pyrrolidin-1-yl)propoxy]-1H,2H,3H-cyclopenta[c]quinolin-4-amine trifluoroacetate], the IC50 is 0.04 µM.
In the case of `COc1cc2c3c(c(N(C)C(C)C)nc2cc1OCCCN1CCCC1)CCC3` [Example 9, 8-methoxy-N-methyl-N-(propan-2-yl)-7-[3-(pyrrolidin-1-yl)propoxy]-1H,2H,3H-cyclopenta[c]quinolin-4-amine trifluoroacetate], the IC50 worked out at 0.69 µM.
For `COc1cc2c3c(c(N4CCCC4)nc2cc1OCCCN1CCCC1)CCC3` [Example 10, 1-{8-methoxy-7-[3-(pyrrolidin-1-yl)propoxy]-1H,2H,3H-cyclopenta[c]quinolin-4-yl}pyrrolidine formate], the IC50 worked out at 0.19 µM.
The result for `COc1cc2c3c(c(NC(C)C)nc2cc1OCC1CCN(C)C1)CCC3` (stereo not shown) [Example 11, 8-methoxy-7-[(1-methylpyrrolidin-3-yl)methoxy]-N-(propan-2-yl)-1H,2H,3H-cyclopenta[c]quinolin-4-amine trifluoroacetate] reads 0.27 µM; that for `COc1cc2c3c(c(NC4CCOCC4)nc2cc1OCCCN1CCCC1)CCCC3` [Example 12, 2-methoxy-N-(oxan-4-yl)-3-[3-(pyrrolidin-1-yl)propoxy]-7,8,9,10-tetrahydrophenanthridin-6-amine trifluoroacetate], 0.52 µM.
Take `COc1cc2c3c(c(NC(C)C)nc2cc1OCCCN1CCCC1)CCCC3` [Example 13, 2-methoxy-N-(propan-2-yl)-3-[3-(pyrrolidin-1-yl)propoxy]-7,8,9,10-tetrahydrophenanthridin-6-amine formate]: the IC50 is 0.042 µM.
The same measure for `COc1cc2c3c(c(NC(C)=O)nc2cc1OCCCN1CCCC1)CCC3` [Example 14, N-{8-methoxy-7-[3-(pyrrolidin-1-yl)propoxy]-1H,2H,3H-cyclopenta[c]quinolin-4-yl}acetamide trifluoroacetate]: 0.19 µM; for `COc1cc2c3c(c(NCCO)nc2cc1OCCCN1CCCC1)CCCC3` [Example 15, 2-({2-methoxy-3-[3-(pyrrolidin-1-yl)propoxy]-7,8,9,10-tetrahydrophenanthridin-6-yl}amino)ethan-1-ol formate]: 0.19 µM.
Regarding `COc1cc2c3c(c(N[C@H]4C[C@H](O)C4)nc2cc1OCCCN1CCCC1)CCC3` [Example 16, (1r,3r-3-({8-methoxy-7-[3-(pyrrolidin-1-yl)propoxy]-1H,2H,3H-cyclopenta[c]quinolin-4-yl}amino)cyclobutan-1-ol trifluoroacetate], the IC50 came out at 0.11 µM.
The same measure for `COc1cc2c3c(c(N[C@@H]4CCOC4)nc2cc1OCCCN1CCCC1)CCC3` [Example 17, 8-methoxy-N-[(3R)-oxolan-3-yl]-7-[3-(pyrrolidin-1-yl)propoxy]-1H,2H,3H-cyclopenta[c]quinolin-4-amine formate]: 0.21 µM.
Turning to `COc1cc2c3c(c(N[C@H]4CCOC4)nc2cc1OCCCN1CCCC1)CCC3` [Example 18, 8-methoxy-N-[(3S)-oxolan-3-yl]-7-[3-(pyrrolidin-1-yl)propoxy]-1H,2H,3H-cyclopenta[c]quinolin-4-amine formate], the IC50 turned out to be 0.11 µM.
For the compound `COc1cc2c3c(c(NC4CC4)nc2cc1OCCCN1CCCC1)CCCC3` [Example 19, N-cyclopropyl-2-methoxy-3-[3-(pyrrolidin-1-yl)propoxy]-7,8,9,10-tetrahydrophenanthridin-6-amine formate], the IC50 is 0.057 µM.
Consider `CNc1nc2cc(OCCCN3CCCC3)c(OC)cc2c2c1CC(O)CC2` (stereo not shown) [Example 20, 2-methoxy-6-(methylamino)-3-[3-(pyrrolidin-1-yl)propoxy]-7,8,9,10-tetrahydrophenanthridin-8-ol formate], for which the IC50 was 0.14 µM.
For `COc1cc2c3c(cnc2cc1OCCCN1CCCC1)CCC3` [Example 21, 1-[3-({8-methoxy-1H,2H,3H-cyclopenta[c]quinolin-7-yl}oxy)propyl]pyrrolidine trifluoroacetate], the IC50 came to 0.62 µM.

The values above are taken from patent US10829452B2, “Histone methyltransferase inhibitors” (GLOBAL BLOOD THERAPEUTICS, INC., priority 2016, dated 2020).
